Measurements taken from patent publication US7772241B2, “Variolin derivatives and their use as antitumor agents” (Pharma Mar S.A., priority 2001, dated 2010).
Where two headings read alike, the source gives them in different places.

Legend:
HT-29 = assay: Inhibition of cells growth by colorimetric (SRB) assay, HT-29
Method in brief: (§1)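 Human tumour cells in RPMI 1640 with 10% FBS were seeded at 5×10^3 cells/well, allowed to attach for 18 h, then exposed to samples at 10 to 10^−8 μg/ml for 48 h. Growth was measured by SRB staining after TCA fixation, with absorbance read at 490 nm in triplicate wells.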

SK-BR-3 = assay: Inhibition of cells growth by colorimetric (SRB) assay, SK-BR-3
Method in brief: as §1

PANC-1 = assay: Inhibition of cells growth by colorimetric (SRB) assay, PANC-1
Method in brief: as §1

A-549 = assay: Inhibition of cells growth by colorimetric (SRB) assay, A-549
Method in brief: as §1

HMEC1 = assay: Inhibition of cells growth by colorimetric (SRB) assay, HMEC1; settings: for GI50: Homo sapiens, HMEC-1, 48 h, read-out: GI50 H-MEC-1, SRB assay, 48 hours exposure; for TGI H-MEC-1: SRB assay, 48 hours exposure, in M (unit assumed)
[1] = as above; settings: human, HMEC1 cells, LC50 H-MEC-1, SRB assay, 48 hours exposure
SK-MEL-28 = assay: Inhibition of cells growth by colorimetric (SRB) assay, SK-MEL-28
Method in brief: as §1

IGROV-1 = assay: Inhibition of cells growth by colorimetric (SRB) assay, IGROV-1
Method in brief: as §1

IGROV-ET = assay: Inhibition of cells growth by colorimetric (SRB) assay, IGROV-ET
Method in brief: as §1

SK-OV-3 = assay: Inhibition of cells growth by colorimetric (SRB) assay, SK-OV-3
Method in brief: as §1

LNCaP = assay: Inhibition of cells growth by colorimetric (SRB) assay, LNCaP
Method in brief: as §1

LoVo = assay: Inhibition of cells growth by colorimetric (SRB) assay, LoVo
Method in brief: as §1

LoVo-Dox = assay: Inhibition of cells growth by colorimetric (SRB) assay, LoVo-Dox
Method in brief: as §1

DU-145 = assay: Inhibition of cells growth by colorimetric (SRB) assay, DU-145
Method in brief: as §1

K-562 = assay: Inhibition of cells growth by colorimetric (SRB) assay, K-562
Method in brief: as §1

Nc1nccc(-c2c3cc(F)c(Cl)nc3n3c(N)nccc23)n1 [Compound 50]
GI50 (HT-29; Homo sapiens, HT-29, 48 h, read-out: GI50 HT-29, SRB assay, 48 hours exposure): ≥ 30.3 µM | CC50 (HT-29; Homo sapiens, HT-29, 48 h, read-out: LC50 HT-29, SRB assay, 48 hours exposure): ≥ 30.3 µM | TGI HT-29 (HT-29; SRB assay, 48 hours exposure): 3.03E−05 | GI50 (SK-BR-3; Homo sapiens, SK-BR-3, 48 h, read-out: GI50 SK-BR-3, SRB assay, 48 hours exposure): 11.6 µM | CC50 (SK-BR-3; Homo sapiens, SK-BR-3, 48 h, read-out: LC50 SK-BR-3, SRB assay, 48 hours exposure): ≥ 30.3 µM | TGI SK-BR-3 (SK-BR-3; SRB assay, 48 hours exposure): 3.03E−05 | GI50 (PANC-1; Homo sapiens, PANC-1, 48 h, read-out: GI50 PANC-1, SRB assay, 48 hours exposure): ≥ 30.3 µM | CC50 (PANC-1; Homo sapiens, PANC-1, 48 h, read-out: LC50 PANC-1, SRB assay, 48 hours exposure): ≥ 30.3 µM | TGI PANC-1 (PANC-1; SRB assay, 48 hours exposure): 3.03E−05 | GI50 (A-549; Homo sapiens, A549, 48 h, read-out: GI50 A-549, SRB assay, 48 hours exposure): 5.25 µM | CC50 (A-549; Homo sapiens, A549, 48 h, read-out: LC50 A-549, SRB assay, 48 hours exposure): ≥ 30.3 µM | TGI A-549 (A-549; SRB assay, 48 hours exposure): 3.03E−05 | GI50 (HMEC1): 8.01 µM | TGI H-MEC-1 (HMEC1): 2.44E−05 | CC50 at 48 h [1]: ≥ 30.3 µM | GI50 (SK-MEL-28; Homo sapiens, SK-MEL-28, 48 h, read-out: GI50 MEL-28, SRB assay, 48 hours exposure): ≥ 30.3 µM | CC50 (SK-MEL-28; Homo sapiens, SK-MEL-28, 48 h, read-out: LC50 MEL-28, SRB assay, 48 hours exposure): ≥ 30.3 µM | TGI MEL-28 (SK-MEL-28; SRB assay, 48 hours exposure): 3.03E−05 | GI50 (IGROV-1; Homo sapiens, IGROV-1, 48 h, read-out: GI50 IGROV, SRB assay, 48 hours exposure): 20.3 µM | CC50 (IGROV-1; Homo sapiens, IGROV-1, 48 h, read-out: LC50 IGROV, SRB assay, 48 hours exposure): ≥ 30.3 µM | TGI IGROV (IGROV-1; SRB assay, 48 hours exposure): 3.03E−05 | GI50 (IGROV-ET; Homo sapiens, 48 h, read-out: GI50 IGROV-ET, SRB assay, 48 hours exposure): 12.9 µM | CC50 (IGROV-ET; Homo sapiens, 48 h, read-out: LC50 IGROV-ET, SRB assay, 48 hours exposure): ≥ 30.3 µM | TGI IGROV-ET (IGROV-ET; SRB assay, 48 hours exposure): 3.03E−05 | GI50 (SK-OV-3; Homo sapiens, SK-OV-3, 48 h, read-out: GI50 SKOV-3, SRB assay, 48 hours exposure): 15.8 µM | CC50 (SK-OV-3; Homo sapiens, SK-OV-3, 48 h, read-out: LC50 SKOV-3, SRB assay, 48 hours exposure): ≥ 30.3 µM | TGI SKOV-3 (SK-OV-3; SRB assay, 48 hours exposure): 3.03E−05 | GI50 (LNCaP; Homo sapiens, LNCaP, 48 h, read-out: GI50 LN-caP, SRB assay, 48 hours exposure): 0.886 µM | CC50 (LNCaP; Homo sapiens, LNCaP, 48 h, read-out: LC50 LN-caP, SRB assay, 48 hours exposure): ≥ 30.3 µM | TGI LN-caP (LNCaP; SRB assay, 48 hours exposure): 1.88E−06 | GI50 (LoVo; Homo sapiens, LoVo, 48 h, read-out: GI50 LOVO, SRB assay, 48 hours exposure): 12 µM | CC50 (LoVo; Homo sapiens, LoVo, 48 h, read-out: LC50 LOVO, SRB assay, 48 hours exposure): ≥ 30.3 µM | TGI LOVO (LoVo; SRB assay, 48 hours exposure): 3.03E−05 | GI50 (LoVo-Dox; Homo sapiens, 48 h, read-out: GI50 LOVO-DOX, SRB assay, 48 hours exposure): 12.6 µM | CC50 (LoVo-Dox; Homo sapiens, 48 h, read-out: LC50 LOVO-DOX, SRB assay, 48 hours exposure): ≥ 30.3 µM | TGI LOVO-DOX (LoVo-Dox; SRB assay, 48 hours exposure): 3.03E−05 | GI50 (DU-145; Homo sapiens, DU-145, 48 h, read-out: GI50 DU-145, SRB assay, 48 hours exposure): 16.5 µM | CC50 (DU-145; Homo sapiens, DU-145, 48 h, read-out: LC50 DU-145, SRB assay, 48 hours exposure): ≥ 30.3 µM | TGI DU-145 (DU-145; SRB assay, 48 hours exposure): 3.03E−05 | GI50 (K-562; Homo sapiens, K562, 48 h, read-out: GI50 K-562, SRB assay, 48 hours exposure): ≥ 30.3 µM | CC50 (K-562; Homo sapiens, K562, 48 h, read-out: LC50 K-562, SRB assay, 48 hours exposure): ≥ 30.3 µM | TGI K-562 (K-562; SRB assay, 48 hours exposure): 3.03E−05

Cl.Nc1nccc2c(-c3ccncn3)c3c(O)ccnc3n12 [Compound 101]
TGI HT-29 (HT-29; SRB assay, 48 hours exposure): 2.35E−05 | GI50 (HT-29; read-out: GI50 HT-29, SRB assay, 48 hours exposure): 8.87 µM | CC50 (HT-29; read-out: LC50 HT-29, SRB assay, 48 hours exposure): ≥ 33.9 µM | TGI SK-BR-3 (SK-BR-3; SRB assay, 48 hours exposure): 8.77E−07 | GI50 (SK-BR-3; read-out: GI50 SK-BR-3, SRB assay, 48 hours exposure): 0.128 µM | CC50 (SK-BR-3; read-out: LC50 SK-BR-3, SRB assay, 48 hours exposure): 10.2 µM | TGI PANC-1 (PANC-1; SRB assay, 48 hours exposure): 4.88E−06 | GI50 (PANC-1; read-out: GI50 PANC-1, SRB assay, 48 hours exposure): 0.149 µM | CC50 (PANC-1; read-out: LC50 PANC-1, SRB assay, 48 hours exposure): ≥ 33.9 µM | TGI A-549 (A-549; SRB assay, 48 hours exposure): 1.09E−05 | GI50 (A-549; read-out: GI50 A-549, SRB assay, 48 hours exposure): 2.39 µM | CC50 (A-549; read-out: LC50 A-549, SRB assay, 48 hours exposure): ≥ 33.9 µM | GI50 (HMEC1): 0.00677 µM | TGI H-MEC-1 (HMEC1): 1.57E−08 | CC50 at 48 h [1]: 0.0444 µM | TGI MEL-28 (SK-MEL-28; SRB assay, 48 hours exposure): 1.07E−05 | GI50 (SK-MEL-28; read-out: GI50 MEL-28, SRB assay, 48 hours exposure): 5.22 µM | CC50 (SK-MEL-28; read-out: LC50 MEL-28, SRB assay, 48 hours exposure): 21.9 µM | TGI IGROV (IGROV-1; SRB assay, 48 hours exposure): 1.06E−05 | GI50 (IGROV-1; read-out: GI50 IGROV, SRB assay, 48 hours exposure): 3.79 µM | CC50 (IGROV-1; read-out: LC50 IGROV, SRB assay, 48 hours exposure): 29.6 µM | TGI IGROV-ET (IGROV-ET; SRB assay, 48 hours exposure): 2.08E−05 | GI50 (IGROV-ET; read-out: GI50 IGROV-ET, SRB assay, 48 hours exposure): 6.6 µM | CC50 (IGROV-ET; read-out: LC50 IGROV-ET, SRB assay, 48 hours exposure): ≥ 33.9 µM | TGI SKOV-3 (SK-OV-3; SRB assay, 48 hours exposure): 1.41E−05 | GI50 (SK-OV-3; read-out: GI50 SKOV-3, SRB assay, 48 hours exposure): 4.44 µM | CC50 (SK-OV-3; read-out: LC50 SKOV-3, SRB assay, 48 hours exposure): ≥ 33.9 µM | TGI LN-caP (LNCaP; SRB assay, 48 hours exposure): 1.32E−07 | GI50 (LNCaP; read-out: GI50 LN-caP, SRB assay, 48 hours exposure): 0.0224 µM | CC50 (LNCaP; read-out: LC50 LN-caP, SRB assay, 48 hours exposure): 4.74 µM | TGI LOVO (LoVo; SRB assay, 48 hours exposure): 1.41E−05 | GI50 (LoVo; read-out: GI50 LOVO, SRB assay, 48 hours exposure): 3.52 µM | CC50 (LoVo; read-out: LC50 LOVO, SRB assay, 48 hours exposure): ≥ 33.9 µM | TGI LOVO-DOX (LoVo-Dox; SRB assay, 48 hours exposure): 1.59E−05 | GI50 (LoVo-Dox; read-out: GI50 LOVO-DOX, SRB assay, 48 hours exposure): 2.35 µM | CC50 (LoVo-Dox; read-out: LC50 LOVO-DOX, SRB assay, 48 hours exposure): ≥ 33.9 µM | TGI DU-145 (DU-145; SRB assay, 48 hours exposure): 1.80E−06 | GI50 (DU-145; read-out: GI50 DU-145, SRB assay, 48 hours exposure): 0.118 µM | CC50 (DU-145; read-out: LC50 DU-145, SRB assay, 48 hours exposure): ≥ 30.3 µM | TGI K-562 (K-562; SRB assay, 48 hours exposure): 1.79E−05 | GI50 (K-562; read-out: GI50 K-562, SRB assay, 48 hours exposure): 5.55 µM | CC50 (K-562; read-out: LC50 K-562, SRB assay, 48 hours exposure): ≥ 33.9 µM
